Test results published in patent US20250101003A1, “SPIROCYCLIC CAV2.3 ANTAGONISTS” (LARIO THERAPEUTICS LIMITED, priority 2021, published 2025).

Target: Cav2.3 (Homo sapiens, UniProt Q15878)
Assay: Human Cav2.3 channel calcium-influx assay
Assay type: cell-based
Conditions: HEK-293 T-Rex/Kir2.1/Cav2.3e-β4-α2δ1 cells, Fluo8 fluorescence, without pluronic acid; read-out: Cav2.3 (pIC50) (converted)
Procedure: HEK-293 T-Rex cells were transfected with pcDNA3.1-Kir2.1 to generate a stable cell line. After antibiotic selection, the obtained stable pools were analysed using FLIPR^TETRA (membrane potential assay), and a limiting dilution was performed and a HEK-293 T-Rex/Kir2.1 clone was selected. The clone was transfected with pcDNA3.1-Cav2.3e and pBud-Cav-β4-α2δ1 to generate a stable cell line where the Cav2.3e expression is inducible. After antibiotic selection, functional clone pool analysis and two successive limiting dilutions, the final clone underwent a qPCR analysis and a biophysical and pharmacological validation using patch-clamp.
A compound plate, containing 10 test compounds in eight-points dose response with n=4, was prepared. Test compounds dose response curves were prepared in automated fashion in 100% DMSO at CyBio Felix and starting from a stock solution in 100% DMSO; a defined volume was serially moved into destination wells pre-filled with the desired DMSO volume; stock solution concentration volumes were dependent on the final compounds concentrations to be tested and the final DMSO content used in the assay. For the assay test compounds dose response curves ranged from 30 μM and half log dilution with 0.3% final DMSO. In order to obtain the 8-points dose response curve all the concentrations were created by starting from a 10 mM DMSO stock solution and then moving 9.5 μL into a destination well pre-filled with 20.5 μL of 100% DMSO and repeating this step seven times. This initial step was done into 96 MTP plates, 10 compounds/plate. One 384 MTP was then reformatted to contain all the 10 compounds at 8 concentrations, quadruplicate data points. This so obtained 384 MTP compound plate served as source plate in a “mother to child” process with a CyBi®-Well dispenser in which 0.7 μL of compounds were moved into a destination plate pre-filled with 57.6 μL of Tyrode's buffer 0 mM K+, thus obtaining 4× concentrated compounds solution. In columns 1-2 and 23-24 the control wells were added. Both “source” compound plate and “destination” compound plate were barcoded and a relationship between the two plates was thus generated.
The day before the experiment, cells were detached by gentle wash with DPBS, followed by 5 min incubation at 37° C. with Trypsin solution. Detached cells were diluted with OptiMEM+Doxycycline at 0.2 μg/mL, counted and plated in Poly-D-Lysine coated black/clear bottom (15.000 c/well in 20 μl/well) by the use of a MATRIX WellMate dispenser. Plates were placed into a humidified incubator at 37° C. with 5% CO2 until the experimental day. 24 h after seeding 10 μL/well of 1.5× Fluo8 NW dye solution prepared in Tyrode's buffer 0 mM K^+ were added on top of the seeding medium. Cell plates were incubated for 40-60 min at RT in the dark. We then Injected off-line 10 μL/well of test compounds and controls 4× concentrated in Tyrode's Buffer 0 mM K+ with the CyBi®-Well instrument. Cell plates were incubated 3 minutes at RT. Finally, we injected 20 μL/well of 3× concentrated activator solution (K20-Na130-Ca2 buffer: 20 mM KCl, 130 mM NaCl, 2 mM CaCl2, 10 mM HEPES, 10 mM Glucose, final concentrations, prepared starting from “KO-Na150-Ca2” and “K150-Na0-Ca2” buffers) at FDSS7000EX instrument and read emitted fluorescence for 130 seconds.
Data analysis was performed with Genedata Screener® software and reported compounds activity as % effect in relation to the normalization standards. The Kinetic Response Value (KRV) is calculated as follows:
KRV=Maximal fluorescence recorded from second 5 to second 130 minus baseline fluorescence, computed as average from second 1 to second 2, of the kinetic trace. The KRV was normalized versus Neutral Controls and Inhibitor Controls in order to obtain the Activity[%] for each well. […] Therefore, the compound activity values were scaled (based on the two references) to a common range (two-point normalization). […]

Chain of Cav2.3 (Q15878 1-747 limits assumed): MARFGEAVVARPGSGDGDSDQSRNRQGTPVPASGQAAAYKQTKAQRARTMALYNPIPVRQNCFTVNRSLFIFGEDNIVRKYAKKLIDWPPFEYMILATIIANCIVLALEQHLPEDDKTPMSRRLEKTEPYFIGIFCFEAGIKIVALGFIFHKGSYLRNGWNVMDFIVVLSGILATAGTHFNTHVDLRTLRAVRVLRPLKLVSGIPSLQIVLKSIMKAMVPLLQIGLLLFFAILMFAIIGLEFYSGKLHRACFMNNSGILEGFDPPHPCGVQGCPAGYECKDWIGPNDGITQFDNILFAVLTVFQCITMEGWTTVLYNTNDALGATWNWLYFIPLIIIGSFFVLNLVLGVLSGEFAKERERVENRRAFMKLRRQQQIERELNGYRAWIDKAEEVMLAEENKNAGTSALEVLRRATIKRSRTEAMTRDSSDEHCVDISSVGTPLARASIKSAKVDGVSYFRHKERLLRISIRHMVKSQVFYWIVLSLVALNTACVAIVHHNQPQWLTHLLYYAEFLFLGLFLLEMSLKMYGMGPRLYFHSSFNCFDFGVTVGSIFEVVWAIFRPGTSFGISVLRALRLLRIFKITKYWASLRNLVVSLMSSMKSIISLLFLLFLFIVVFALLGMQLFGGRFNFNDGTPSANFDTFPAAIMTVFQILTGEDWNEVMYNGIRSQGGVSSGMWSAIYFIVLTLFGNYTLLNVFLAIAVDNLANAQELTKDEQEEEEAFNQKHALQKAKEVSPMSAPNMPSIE
Chain of Cav2.3 (Q15878 1126-2313 limits assumed): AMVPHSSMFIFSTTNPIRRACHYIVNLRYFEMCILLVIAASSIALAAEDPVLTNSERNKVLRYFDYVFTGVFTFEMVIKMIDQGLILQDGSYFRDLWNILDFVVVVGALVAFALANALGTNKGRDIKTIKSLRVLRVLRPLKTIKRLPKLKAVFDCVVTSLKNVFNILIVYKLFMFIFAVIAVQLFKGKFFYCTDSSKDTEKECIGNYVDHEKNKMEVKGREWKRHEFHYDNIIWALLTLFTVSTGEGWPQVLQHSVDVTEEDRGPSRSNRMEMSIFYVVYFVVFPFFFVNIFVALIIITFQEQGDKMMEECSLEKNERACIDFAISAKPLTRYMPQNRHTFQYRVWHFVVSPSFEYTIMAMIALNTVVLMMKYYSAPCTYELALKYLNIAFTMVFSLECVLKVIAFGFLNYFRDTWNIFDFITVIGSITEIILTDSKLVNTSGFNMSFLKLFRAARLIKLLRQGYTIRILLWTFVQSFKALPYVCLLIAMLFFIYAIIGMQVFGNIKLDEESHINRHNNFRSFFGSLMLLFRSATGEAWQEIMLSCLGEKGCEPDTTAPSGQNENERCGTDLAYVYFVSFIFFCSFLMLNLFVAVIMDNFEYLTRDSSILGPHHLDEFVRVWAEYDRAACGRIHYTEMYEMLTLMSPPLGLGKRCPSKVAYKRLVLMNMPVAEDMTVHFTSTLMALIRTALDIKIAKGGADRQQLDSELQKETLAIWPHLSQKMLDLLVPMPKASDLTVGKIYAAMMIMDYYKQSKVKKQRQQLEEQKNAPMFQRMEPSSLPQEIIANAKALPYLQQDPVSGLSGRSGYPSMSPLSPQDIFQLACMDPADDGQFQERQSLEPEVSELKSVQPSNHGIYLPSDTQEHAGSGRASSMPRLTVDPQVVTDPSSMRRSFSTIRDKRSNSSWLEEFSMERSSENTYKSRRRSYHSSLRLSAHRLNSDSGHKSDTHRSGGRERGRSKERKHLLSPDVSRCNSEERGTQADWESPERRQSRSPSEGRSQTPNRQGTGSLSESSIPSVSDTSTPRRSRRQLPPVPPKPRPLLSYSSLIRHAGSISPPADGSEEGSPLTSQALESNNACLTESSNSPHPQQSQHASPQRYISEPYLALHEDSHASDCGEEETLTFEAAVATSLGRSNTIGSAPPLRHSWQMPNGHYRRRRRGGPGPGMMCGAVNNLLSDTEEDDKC

Cc1ccc(S(=O)(=O)N2CC3(CCC3)CC2C)s1 (single isomer, unassigned) [Example 77, 7-Methyl-6-((5-methylthiophen-2-yl)sulfonyl)-6-azaspiro[3.4]octane]
IC50: 13.8 µM

Cc1nc(C)c(S(=O)(=O)N2CC3(CCC3)CC2C)s1 (single isomer, unassigned) [Example 107, 2,4-dimethyl-5-((7-methyl-6-azaspiro[3.4]octan-6-yl)sulfonyl)thiazole]
IC50: 6.76 µM

CCc1ncsc1S(=O)(=O)N1CC2(CCC2)CC1C (stereo not shown) [Example 64, 4-Ethyl-5-((7-methyl-6-azaspiro[3.4]octan-6-yl)sulfonyl)thiazole]
IC50: 3.72 µM

CC1CC2(CCC2)CN1S(=O)(=O)c1cc2oc(=O)[nH]c2cc1Cl (single isomer, unassigned) [Example 57, 5-Chloro-6-((7-methyl-6-azaspiro[3.4]octan-6-yl)sulfonyl)benzo[d]oxazol-2(3H)-one]
IC50: 5.13 µM

CC(C)Oc1cc(S(=O)(=O)N2CC3(CCC3)CC2C)ccn1 (stereo not shown) [Example 84, 6-((2-Isopropoxypyridin-4-yl)sulfonyl)-7-methyl-6-azaspiro[3.4]octane]
IC50: 4.47 µM

Cc1ccc(S(=O)(=O)N2CC3(CCC3)CC2C)s1 (single isomer, unassigned) [Example 78, 7-methyl-6-((5-methylthiophen-2-yl)sulfonyl)-6-azaspiro[3.4]octane]
IC50: 3.63 µM

Cc1ccnc2cc(S(=O)(=O)N3CC4(CCC4)CC3C)ccc12 (single isomer, unassigned) [Example 81, 4-Methyl-7-((7-methyl-6-azaspiro[3.4]octan-6-yl)sulfonyl)quinoline]
IC50: 4.57 µM

CC1CC2(CCC2)CN1S(=O)(=O)c1ccc2c(c1)OCCO2 (single isomer, unassigned) [Example 7, 6-((2,3-dihydrobenzo[b][1,4]dioxin-6-yl)sulfonyl)-7-methyl-6-azaspiro[3.4]octane]
IC50: 2.19 µM

CC1CC2(CCC2)CN1S(=O)(=O)c1cc2ccccc2o1 (stereo not shown) [Example 66, 6-(Benzofuran-2-ylsulfonyl)-7-methyl-6-azaspiro[3.4]octane]
IC50: 9.12 µM

CC1CC2(CCC2)CN1S(=O)(=O)c1cccs1 (stereo not shown) [Example 102, 7-Methyl-6-(thiophen-2-ylsulfonyl)-6-azaspiro[3.4]octane]
IC50: 2.69 µM

Cc1nc(C)c(S(=O)(=O)N2CC3(CCC3)CC2C)s1 (single isomer, unassigned) [Example 106, 2,4-Dimethyl-5-((7-methyl-6-azaspiro[3.4]octan-6-yl)sulfonyl)thiazole]
IC50: 2.19 µM

CCC1CC2(CCC2)CN1S(=O)(=O)c1ccc2c(c1)CN(C(=O)C(C)C)CC2 (stereo not shown) [Example 34, 1-(7-((7-Ethyl-6-azaspiro[3.4]octan-6-yl)sulfonyl)-3,4-dihydroisoquinolin-2(1H)-yl)-2-methylpropan-1-one]
IC50: 1.1 µM

O=S(=O)(c1cccs1)N1CC2(CCCC2)CC1C1CCCCC1 (stereo not shown) [Example 75, 3-Cyclohexyl-2-(thiophen-2-ylsulfonyl)-2-azaspiro[4.4]nonane]
IC50: 37.2 µM

CC(C)C(=O)N1Cc2ccc(S(=O)(=O)N3CC4(CCC4)CC3C)cc2C1 (stereo not shown) [Example 52, 2-methyl-1-(5-((7-methyl-6-azaspiro[3.4]octan-6-yl)sulfonyl)isoindolin-2-yl)propan-1-one]
IC50: 2 µM

CCC1CC2(CCC2)CN1S(=O)(=O)c1ccc2ccsc2c1 (stereo not shown) [Example 35, 6-(Benzo[b]thiophen-6-ylsulfonyl)-7-ethyl-6-azaspiro[3.4]octane]
IC50: 3.8 µM

CC1CC2(CCC2)CN1S(=O)(=O)c1ccccc1 (stereo not shown) [Example 45, 7-Methyl-6-(phenylsulfonyl)-6-azaspiro[3.4]octane]
IC50: 3.39 µM

CC1CC2(CCC2)CN1S(=O)(=O)c1ccc2[nH]c(=O)[nH]c2c1 (stereo not shown) [Example 59, 5-((7-Methyl-6-azaspiro[3.4]octan-6-yl)sulfonyl)-1,3-dihydro-2H-benzo[d]imidazol-2-one]
IC50: 11.2 µM

CC1CC2(CCC2)CN1S(=O)(=O)c1cncs1 (stereo not shown) [Example 109, 5-((7-Methyl-6-azaspiro[3.4]octan-6-yl)sulfonyl)thiazole]
IC50: 3.98 µM

CC1CC2(CCC2)CN1S(=O)(=O)c1cnccn1 (stereo not shown) [Example 39, 7-methyl-6-(pyrazin-2-ylsulfonyl)-6-azaspiro[3.4]octane]
IC50: 10.7 µM

CC1CC2(CCC2)CN1S(=O)(=O)c1ccc2c(c1)OCCO2 (stereo not shown) [Example 5, 6-((2,3-Dihydrobenzo[b][1,4]dioxin-6-yl)sulfonyl)-7-methyl-6-azaspiro[3.4]octane]
IC50: 2.95 µM

CCC1CC2(CCCC2)CN1S(=O)(=O)c1cccs1 (stereo not shown) [Example 97, 3-Ethyl-2-(thiophen-2-ylsulfonyl)-2-azaspiro[4.4]nonane]
IC50: 2.51 µM

CCC1CC2(CCC2)CN1S(=O)(=O)c1ccnc(OC)c1 (stereo not shown) [Example 87, 7-Ethyl-6-((2-methoxypyridin-4-yl)sulfonyl)-6-azaspiro[3.4]octane]
IC50: 2 µM

CC1CC2(CCC2)CN1S(=O)(=O)c1ccc2c(c1)COC2 (stereo not shown) [Example 65, 6-((1,3-Dihydroisobenzofuran-5-yl)sulfonyl)-7-methyl-6-azaspiro[3.4]octane]
IC50: 3.98 µM

CC1CC2(CCC2)CN1S(=O)(=O)c1cccc2c1CN(C(=O)C(F)(F)F)CC2 (stereo not shown) [Example 85, 2,2,2-Trifluoro-1-(8-((7-methyl-6-azaspiro[3.4]octan-6-yl)sulfonyl)-3,4-dihydroisoquinolin-2(1H)-yl)ethan-1-one]
IC50: 19.1 µM

CC(=O)N1CCc2ccc(S(=O)(=O)N3CC4(CCC4)CC3C)cc2C1 (stereo not shown) [Example 94, 1-(7-((7-Methyl-6-azaspiro[3.4]octan-6-yl)sulfonyl)-3,4-dihydroisoquinolin-2(1H)-yl)ethan-1-one]
IC50: 2 µM

CC1CC2(CCC2)CN1S(=O)(=O)c1ccco1 (stereo not shown) [Example 36, 6-(Furan-2-ylsulfonyl)-7-methyl-6-azaspiro[3.4]octane]
IC50: 5.25 µM

CC1CC2(CCC2)CN1S(=O)(=O)c1ccc2oncc2c1 (stereo not shown) [Example 68, 5-((7-Methyl-6-azaspiro[3.4]octan-6-yl)sulfonyl)benzo[d]isoxazole]
IC50: 39.8 µM

CCC1CC2(CCC2)CN1S(=O)(=O)c1ccc2c(c1)S(=O)(=O)CC2 (single isomer, unassigned) [Example 63, 6-((7-ethyl-6-azaspiro[3.4]octan-6-yl)sulfonyl)-2,3-dihydrobenzo[b]thiophene 1,1-dioxide]
IC50: 5.62 µM

CCOC(=O)N1CCc2ccc(S(=O)(=O)N3CC4(CCC4)CC3C)cc2C1 (single isomer, unassigned) [Example 24, Ethyl 7-((7-methyl-6-azaspiro[3.4]octan-6-yl)sulfonyl)-3,4-dihydroisoquinoline-2(1H)-carboxylate]
IC50: 1.62 µM

CC1CC2(CCC2)CN1S(=O)(=O)c1ccco1 (single isomer, unassigned) [Example 37, 6-(Furan-2-ylsulfonyl)-7-methyl-6-azaspiro[3.4]octane]
IC50: 7.94 µM

CC1CC2(CCC2)CN1S(=O)(=O)c1ccc2ccccc2n1 (stereo not shown) [Example 79, 2-((7-Methyl-6-azaspiro[3.4]octan-6-yl)sulfonyl)quinoline]
IC50: 6.31 µM

CC1CC2(CCC2)CN1S(=O)(=O)c1cncnc1 (stereo not shown) [Example 83, 7-Methyl-6-(pyrimidin-5-ylsulfonyl)-6-azaspiro[3.4]octane]
IC50: 8.91 µM

COCc1ncsc1S(=O)(=O)N1CC2(CCC2)CC1C (stereo not shown) [Example 89, 4-(Methoxymethyl)-5-((7-methyl-6-azaspiro[3.4]octan-6-yl)sulfonyl)thiazole]
IC50: 10 µM

CC1CC2(CCC2)CN1S(=O)(=O)c1ccccc1 (single isomer, unassigned) [Example 47, 7-methyl-6-(phenylsulfonyl)-6-azaspiro[3.4]octane]
IC50: 1.58 µM
